Several values for one entry are separate records, joined by “and”; a condition that tells them apart may be missing. Identical values can stand only once.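 Results reflect a 48-hour exposure of cells in 96-well plates to compound at five concentrations. GI50 = concentration required for 50% inhibition of growth. TGI denotes the concentration required for complete inhibition of growth.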
Columns and labels:
Assay in all cases: growth of human tumour cells (NCI), 48 h
ACHN renal = system: ACHN renal
BT-549 breast = system: BT-549 breast
HCT-116 colon = system: HCT-116 colon
KM12 colon = system: KM12 colon
MCF7 breast = system: MCF7 breast
MDA-MB-231 breast = system: MDA-MB-231 breast
MDA-MB-435 = system: MDA-MB-435
OVCAR-4 ovarian = system: OVCAR-4 ovarian
SNB-19 CNS = system: SNB-19 CNS
UO-31 renal = system: UO-31 renal

SMILES | GI50 (ACHN renal) | TGI (ACHN renal) | GI50 (BT-549 breast) | TGI (BT-549 breast) | GI50 (HCT-116 colon) | TGI (HCT-116 colon) | GI50 (KM12 colon) | TGI (KM12 colon) | GI50 (MCF7 breast) | TGI (MCF7 breast) | GI50 (MDA-MB-231 breast) | TGI (MDA-MB-231 breast) | GI50 (MDA-MB-435) | TGI (MDA-MB-435) | GI50 (OVCAR-4 ovarian) | TGI (OVCAR-4 ovarian) | GI50 (SNB-19 CNS) | TGI (SNB-19 CNS) | GI50 (UO-31 renal) | TGI (UO-31 renal)
C#C[C@]1(O)CC[C@H]2[C@@H]3CC=C4c5nc(N)sc5CC[C@]4(C)[C@H]3CC[C@@]21C | 5.25 µM | 30.2 µM | 1.97 µM | 6.26 µM | 3.91 µM | 19.6 µM | 3.49 µM | 16.1 µM | 3.54 µM | 10.1 µM | 3.07 µM | 9.67 µM | 2.22 µM | 7.2 µM | 13.2 µM | 70.5 µM | 6.2 µM | 31.1 µM | 2.68 µM | 10.5 µM
COc1cccc(/C=N\NC(=O)C(C)SC(C)C(=O)N/N=C/c2cccc(OC)c2)c1 (configuration not stated) |  | 35.6 µM |  |  |  | 34.7 µM |  | > 67.3 µM |  |  |  |  |  |  |  | 31.9 µM |  | 45.5 µM |  | > 85.5 µM
NC(=O)/C(=C/n1cnc(-c2cc(C(F)(F)F)cc(C(F)(F)F)c2)n1)c1cncnc1 | 0.386 µM | 11.4 µM | 0.12 µM | 2.98 µM | 0.162 µM | 4.95 µM | 1.19 µM | 13.4 µM | 0.112 µM | 11.2 µM | 0.186 µM | 16.9 µM | 0.237 µM | 3.89 µM | 0.0833 µM | 16.1 µM | 0.654 µM | 15 µM | 0.426 µM | 12.8 µM
CC(C)OP(=O)(O)c1ncc(-c2ccc(C(F)(F)F)cc2)c(NC2CCCCCC2)n1 | > 100 µM | > 100 µM | > 100 µM | > 100 µM | > 100 µM | > 100 µM | 68.8 µM | > 100 µM | > 100 µM | > 100 µM | > 100 µM | > 100 µM | > 100 µM | > 100 µM | 61.2 µM | > 100 µM | > 100 µM | > 100 µM | > 100 µM | > 100 µM
C[C@H]1CC[P+](C)(c2ccccc2)C1 (some centres not stated) |  | > 100 µM |  |  |  | > 100 µM |  | > 100 µM |  |  |  |  |  |  |  |  |  | > 100 µM |  | > 100 µM
CCOc1ccc2cc(-c3nn(CC4CCNCC4)c4ncnc(N)c34)ccc2c1 | 15.1 µM | 29.8 µM | 13.4 µM | 27.6 µM | 13.4 µM | 29.3 µM | 1.64 µM | 13.7 µM | 11.2 µM | 24.8 µM | 11.1 µM | 25.5 µM | 13.1 µM | 25.8 µM | 10.9 µM | 33.4 µM | 16.7 µM | 34.5 µM | 5.61 µM | 20.7 µM
CC1OC(OC2C(O)C(O)C(O)C(O)C2O)C(N)CC1N=C(N)C(=O)O (configuration not stated) |  | > 100 µM |  | > 100 µM |  | > 100 µM |  | > 100 µM |  | > 100 µM |  | > 100 µM |  | > 100 µM |  | > 100 µM |  | > 100 µM |  | > 100 µM
O=[N+]([O-])/C=C/c1ccc(Cl)cc1[N+](=O)[O-] | 1.95 µM | 3.79 µM | 3.47 µM | 10.2 µM | 1.86 µM | 3.67 µM | 3.09 µM | > 100 µM |  |  | 2.33 µM | 6.46 µM | 3.62 µM | 16.1 µM | 4.36 µM | 15 µM | 3.32 µM | 14 µM | 1.55 µM | 3.82 µM
CN(C)c1ccc(C(O)C2=CC(=O)c3ccccc3C2=O)cc1 (configuration not stated) | 3.69 µM | 31.8 µM | 2.58 µM | 6.25 µM | 17.8 µM | 37 µM | 13.7 µM | 91.4 µM | 4.7 µM | > 100 µM |  |  | 5.94 µM | 28 µM | 4.51 µM | > 100 µM |  |  | 6.46 µM | 19.3 µM
CCCCCCCCCCCCCCCC[n+]1ccccc1 | 0.733 µM and 0.909 µM | 2.16 µM and 4.49 µM |  |  | 0.321 µM | 1.31 µM |  |  |  |  | 0.44 µM and 0.805 µM | 1.74 µM and 2.7 µM |  |  | 0.57 µM | 3.29 µM | 0.559 µM | 1.9 µM | 0.795 µM and 1.16 µM | 2.33 µM and 2.85 µM
COc1ccc(-c2cc(/C=C/C(=O)c3ccc(N)cc3)[nH]n2)cc1 | 2.01 µM | 10.6 µM | 1.74 µM | 4.78 µM |  |  | 1.54 µM | 3.42 µM | 0.708 µM | 3.84 µM | 2.14 µM | 8.29 µM | 2.24 µM | 7 µM | 1.08 µM | 8.01 µM | 2.29 µM | 11.6 µM | 1.18 µM | 2.56 µM
Cc1cc(Cl)ccc1NC(=O)C1C(=O)N(c2ccc(Cl)cc2C)C(=O)/C1=N\NC(N)=S (configuration not stated) |  | > 100 µM |  |  |  | 46.2 µM |  | > 100 µM |  |  |  |  |  |  |  | 69.7 µM |  | > 100 µM |  | 41.1 µM
COc1cccc(-c2nc3sccn3c2-c2ccnc(NCCCNS(=O)(=O)c3ccccc3)c2)c1 | 2.66 µM | > 100 µM |  |  | 3.32 µM | > 100 µM | 2.97 µM | > 100 µM | 3.83 µM | > 100 µM | 3.48 µM | > 100 µM | 3.53 µM | > 100 µM | 2.87 µM | > 100 µM | 4.92 µM | > 100 µM | 2.07 µM | > 100 µM
COc1cc(/C=C2\SC(N3CCCCC3)=NC2=O)ccc1OCCCCCCOc1ccc(/C=C2\SC(N3CCCCC3)=NC2=O)cc1OC | 15.1 µM | 34.2 µM | 4.29 µM | 22.8 µM | 12.6 µM | 31.2 µM | 11.1 µM | 25 µM | 15.1 µM | 44.9 µM | 2.13 µM | 21 µM | 10.8 µM | 79.1 µM |  |  | 9.58 µM | 39.7 µM | 13.2 µM | 39.3 µM
Cc1ccc2ccc(-c3ccccc3)c3c2c1C(=O)c1ccccc1C3=O |  | > 100 µM |  |  |  | > 100 µM |  | > 100 µM |  |  |  |  |  |  |  |  |  | > 100 µM |  | > 100 µM

— PubChem BioAssay (NCI)
